Measured values reported in the NIST ThermoML archive (doi:10.1016/j.tca.2011.06.003).

Assay: xn = mol fraction of the nth substance listed
Conditions: 101 kPa, Liquid; for speed of sound: Sing-around technique in a fixed-path interferometer; for mass density: Vibrating tube method

NCCNCCN [di(2-aminoethyl)amine] + CC(C)CO
Conditions | mass density [kg/m3] | speed of sound [m/s] | viscosity [mPa·s]
293.15 K, x1 = 0.054 | 815.237 | 1243 | –
293.15 K, x1 = 0.1043 | 826.644 | 1275.2 | –
293.15 K, x1 = 0.1529 | 836.817 | 1305.2 | –
293.15 K, x1 = 0.2068 | 847.162 | 1337.4 | –
293.15 K, x1 = 0.2535 | 855.512 | 1364.9 | –
293.15 K, x1 = 0.305 | 863.833 | 1390.5 | –
293.15 K, x1 = 0.4057 | 878.879 | 1439.4 | –
293.15 K, x1 = 0.5036 | 892.182 | 1484.7 | –
293.15 K, x1 = 0.6053 | 905.319 | 1531.6 | –
293.15 K, x1 = 0.7048 | 919.507 | 1570.3 | –
293.15 K, x1 = 0.8098 | 929.46 | 1613.2 | –
293.15 K, x1 = 0.8522 | 933.916 | 1630.9 | –
293.15 K, x1 = 0.9074 | 939.952 | 1653.2 | –
293.15 K, x1 = 0.9537 | 944.995 | 1671.9 | –
298.15 K, x1 = 0.054 | 811.313 | 1226.2 | 4.027
298.15 K, x1 = 0.1043 | 822.66 | 1258 | 4.548
298.15 K, x1 = 0.1529 | 832.792 | 1287.9 | 5.094
298.15 K, x1 = 0.2068 | 843.096 | 1319.8 | 5.514
298.15 K, x1 = 0.2535 | 851.38 | 1345.4 | 5.73
298.15 K, x1 = 0.305 | 859.744 | 1372.5 | 5.908
298.15 K, x1 = 0.4057 | 874.785 | 1421.6 | 6.024
298.15 K, x1 = 0.5036 | 888.088 | 1466.7 | 5.962
298.15 K, x1 = 0.6053 | 901.203 | 1511.4 | 5.795
298.15 K, x1 = 0.7048 | 915.398 | 1551.7 | 5.661
298.15 K, x1 = 0.8098 | 925.283 | 1594.3 | 5.603
298.15 K, x1 = 0.8522 | 929.73 | 1611.7 | 5.574
298.15 K, x1 = 0.9074 | 935.74 | 1633.9 | 5.541
298.15 K, x1 = 0.9537 | 940.776 | 1651.9 | 5.539
303.15 K, x1 = 0.054 | 807.355 | 1209.3 | 3.292
303.15 K, x1 = 0.1043 | 818.653 | 1241.1 | 3.707
303.15 K, x1 = 0.1529 | 828.735 | 1270.7 | 4.092
303.15 K, x1 = 0.2068 | 839.013 | 1302.4 | 4.365
303.15 K, x1 = 0.2535 | 847.289 | 1328.1 | 4.521
303.15 K, x1 = 0.305 | 855.641 | 1355.1 | 4.656
303.15 K, x1 = 0.4057 | 870.683 | 1404.1 | 4.762
303.15 K, x1 = 0.5036 | 883.968 | 1449.2 | 4.732
303.15 K, x1 = 0.6053 | 897.071 | 1493.2 | 4.695
303.15 K, x1 = 0.7048 | 911.268 | 1533.6 | 4.652
303.15 K, x1 = 0.8098 | 921.103 | 1575.5 | 4.575
303.15 K, x1 = 0.8522 | 925.54 | 1592.9 | 4.525
303.15 K, x1 = 0.9074 | 931.531 | 1614.5 | 4.508
303.15 K, x1 = 0.9537 | 936.554 | 1632.6 | 4.49
308.15 K, x1 = 0.054 | 803.363 | 1192.6 | 2.815
308.15 K, x1 = 0.1043 | 814.618 | 1224.2 | 3.146
308.15 K, x1 = 0.1529 | 824.666 | 1254 | 3.463
308.15 K, x1 = 0.2068 | 834.918 | 1285.4 | 3.654
308.15 K, x1 = 0.2535 | 843.178 | 1310.6 | 3.768
308.15 K, x1 = 0.305 | 851.532 | 1337.4 | 3.855
308.15 K, x1 = 0.4057 | 866.568 | 1386.9 | 3.927
308.15 K, x1 = 0.5036 | 879.851 | 1431.7 | 3.966
308.15 K, x1 = 0.6053 | 892.938 | 1475.8 | 3.919
308.15 K, x1 = 0.7048 | 907.117 | 1515.9 | 3.899
308.15 K, x1 = 0.8098 | 916.922 | 1556.7 | 3.817
308.15 K, x1 = 0.8522 | 921.354 | 1574.1 | 3.807
308.15 K, x1 = 0.9074 | 927.328 | 1595.3 | 3.789
308.15 K, x1 = 0.9537 | 932.338 | 1613.3 | 3.78
313.15 K, x1 = 0.054 | 799.326 | 1175.8 | –
313.15 K, x1 = 0.1043 | 810.545 | 1208 | –
313.15 K, x1 = 0.1529 | 820.566 | 1237.8 | –
313.15 K, x1 = 0.2068 | 830.795 | 1269.1 | –
313.15 K, x1 = 0.2535 | 839.045 | 1294.6 | –
313.15 K, x1 = 0.305 | 847.399 | 1321.3 | –
313.15 K, x1 = 0.4057 | 862.439 | 1371 | –
313.15 K, x1 = 0.5036 | 875.718 | 1414.9 | –
313.15 K, x1 = 0.6053 | 888.795 | 1459.1 | –
313.15 K, x1 = 0.7048 | 902.896 | 1499.5 | –
313.15 K, x1 = 0.8098 | 912.74 | 1538.9 | –
313.15 K, x1 = 0.8522 | 917.161 | 1555.8 | –
313.15 K, x1 = 0.9074 | 923.121 | 1576.3 | –
313.15 K, x1 = 0.9537 | 928.116 | 1593.7 | –
